Measurements taken from ChEMBL document CHEMBL3046912, “Effectiveness of 1,3-dichloropropene as an alternative to methyl bromide in rotations of tomato (Solanum lycopersicum) and cucumber (Cucumis sativus) in China” (2012).

Tests used:
Type in all cases: functional
Digitaria sanguinalis [1] = assay: Herbicidal activity against Digitaria sanguinalis (hairy crabgrass) in cucumber plants fields exposed to 90 L/ha compound fumigation treatment assessed as hand weeding time per plot relative to untreated control
Solanum lycopersicum = assay: Increase in plant height of Solanum lycopersicum (tomato) exposed to 120 L/ha compound fumigation treatment measured 30 days after compound treatment (reference value: 28.4 cm)
Capsella bursa-pastoris [2] = assay: Herbicidal activity against Capsella bursa-pastoris in tomato plants fields exposed to 180 L/ha compound fumigation treatment assessed as hand weeding time per plot (reference value: 243.3 hr/ha)
Meloidogyne incognita = assay: Nematicidal activity against Meloidogyne incognita (root-knot nematode) in cucumber growing fields exposed to 120 L/ha compound fumigation treatment assessed as root galling index measured 20 days after compound treatment (reference value: 8.72 root galling index)
Capsella bursa-pastoris [3] = assay: Herbicidal activity against Capsella bursa-pastoris in tomato plants fields exposed to 120 L/ha compound fumigation treatment assessed as hand weeding time per plot relative to untreated control
Digitaria sanguinalis [4] = assay: Herbicidal activity against Digitaria sanguinalis (hairy crabgrass) in tomato plants fields exposed to 120 L/ha compound fumigation treatment assessed as hand weeding time per plot (reference value: 243.3 hr/ha)

## Cl/C=C/CCl [1,3-DICHLOROPROPENE]
Digitaria sanguinalis [1]
  Activity: 45%
Solanum lycopersicum
  Activity: 37.9 cm
Capsella bursa-pastoris [2]
  Time: 55.6 hr/ha
Meloidogyne incognita
  Root_galling_index: 2.92
Capsella bursa-pastoris [3]
  Activity: 45%
Digitaria sanguinalis [4]
  Time: 66.4 hr/ha
